“Also recorded” adds a separate entry of the source. Counter-ions that a name gives are not always drawn. Like-named read-outs stand apart in the source and are kept apart here.
What was measured:
human skin [1] = assay: Human skin blanch 20 min after topical application, Example 6; format: in vivo; details: applied to unbroken human skin
Protocol: (§1) The approximate amount of heat required to dissolve the vasoconstrictor salt in each diluent is indicated. Once diluted, samples were sealed and held at room temperature (22° C.) for 24 hours and then at 4° C. for 24 hours. Skin blanch induced by the topical formulation was assessed by applying freshly made, clear formulation to human skin shortly after initial mixing. Drug solutions were monitored for the appearance of precipitated material over a 48 hour observation period.

human skin [2] = details: for Skin Blanch Response: human arm skin, 180 min
[3] = test system: radiation-induced oral mucositis; assay: Radiation-induced oral mucositis in hamster cheek pouch, Example 16; details: hamster cheek pouch
cheek pouch oral mucosa = assay: Blanch response of hamster cheek pouch oral mucosa, Example 15; format: in vivo, Syrian Golden hamster; details: 10 mM in 5:1:94 ethanol:HPMC:PBS, after 30 min
Protocol: Hamsters were anesthetized with sodium pentobarbital, the cheek pouch was everted with forceps, rinsed with water and blotted, and immobilized on a 2 cm diameter inert plastic disk using stainless steel clips (see panels in FIG. 11). […] Digital images were recorded.

[4] = test system: radiation-induced oral mucositis; details: 12.3 mM, vehicle 0:5:3:92, irradiation 24 min, Experiment B, score 0-17, day 16
Protocol: In an assay based upon Alvarez eta/. […] Additional topical formulation was applied with Q-tip to uniformly cover the everted, interior surface of the cheek pouch. After 20 min, the vehicle-coated, immobilized cheek pouch was taped into position over a 1.5 cm diameter window bored through a 2.5 cm thick lead plate. The sleeping hamster was immobilized on a small shelf on the plate that enabled cheek pouch irradiation through the window.
After irradiation, the cheek pouch was rinsed with water, blotted and reverted. The severity of mucositis in the irradiated cheek pouch was scored 16 days later using the following criteria.

[5] = Dissolution and 24 hr solution status of vasoconstrictor salts in ethanol:PG:water diluents, Example 6; format: physicochemical; details: at the concentrations required to induce an acceptable blanch response
Protocol: Aliquots of each vasoconstrictor salt were weighed into glass test tubes. The volume of liquid necessary to achieve the indicated final drug concentration was then added.
as §1

[6] = blood plasma, following intravenous infusion or oral administration; cited from earlier work
coat density = details: ten-day old Sprague-Dawley rats
Protocol: On day 20 of life, coat density on the dorsal back of each animal was visually scored as a percentage of the normal coat density for an untreated 20 day old rat. At 30 μg/gm b.w.

In the case of `CNC[C@H](O)c1cccc(O)c1` [phenylephrine, phenylephrine-HCl], the “potency to induce skin blanch” value (human skin [1]) is reported as “lacks the potency to adequately induce skin blanch”, the “Skin Blanch Response” value (human skin [2]; 30 mM in 60:30:10 vehicle) is reported as 0% and the “Skin Blanch Response” value (human skin [2]; 150 mM in 60:30:10 vehicle) is reported as 35%. The “Skin Blanch Response” value (human skin [2]; 0.25% (12.3 mM) in water) was 0%, the “blanching of the skin” value (human skin [2]; 0.25% aqueous solution, human skin, over the 180 min observation period) was “no detectable blanching” and the “Skin Blanch Response” value (human skin [2]; 300 mM in 60:30:10 vehicle) was 50%. The “Skin Blanch Response” value (human skin [2]; 1000 mM in 60:30:10 vehicle) was 60%, the “Skin Blanch Response” value (human skin [2]; 2500 mM in 60:30:10 vehicle) was 70% and the “protection against γ radiation-induced mucositis” value ([3]; 10 mM topical) was “completely protective; also recorded: completely preventing”. The mucosal pathology ([3]; large excess doses combined with 24 min of irradiation (40 Gy)) was “severe mucosal pathology”, the mucosal pathology ([3]; large excess doses without irradiation) was “no discernible mucosal pathology” and the “appearance of cheek pouch (blanch)” value (cheek pouch oral mucosa) was “white and translucent”. For the same molecule, the “Muscositis Severity Score” value [4] was 5.0 ± 0.1 and the “solubility in topical vehicles” value [5] was “not stably soluble”.

In the case of `O=P1(N(CCCl)CCCl)NCCCO1` (centres unmarked) [Cytoxan, cyclophosphamide], the clearance half-life [6] is listed as “about one”, the “coat on day 20” value (coat density; 20 μg/gm b.w. and lower doses i.p.) is listed as “full coats” and the “coat on day 20” value (coat density; 30 μg/gm b.w. and higher doses i.p.) is listed as “nude”.
